The source made the active and inactive calls.
Columns and labels:
Assay type in all cases: functional
[1] = A Cell Based Secondary Assay to Explore Cytotoxicity in THP-1 Cells of Compounds that Modulate Mycobacterium tuberculosis in Media Containing Glycerol versus Media without Glycerol (2).
[2] = Vero cell cytotoxicity, dose response, cytotoxicity control for M. tuberculosis growth inhibitor project, Vero cells, purified and synthesized compounds, set 5 (AID 504909); details: Mycobacterium tuberculosis
[3] = microbe, parasite or virus in culture; details: Mycobacterium tuberculosis
[4] = THP-1 cell cytotoxicity, cytotoxicity control, set 4 (AID 504911); details: Mycobacterium tuberculosis
[5] = THP-1 cell cytotoxicity, dose response, cytotoxicity control, set 3 (AID 504852); details: Mycobacterium tuberculosis
[6] = HepG2 cell cytotoxicity, dose response, cytotoxicity control, set 3 (AID 504853); details: Mycobacterium tuberculosis
[7] = A Cell Based Secondary Assay to Explore Cytotoxicity in HepG2 Cells of Compounds that Modulate Mycobacterium tuberculosis in Media Containing Glycerol versus Media without Glycerol (2).
[8] = Vero cell cytotoxicity, dose response, cytotoxicity control for M. tuberculosis growth inhibitor project, Vero cells, purified and synthesized compounds, set 4 (AID 504854); details: Mycobacterium tuberculosis
[9] = Vero cell cytotoxicity, cytotoxicity control for M. tuberculosis inhibitor project, purified and synthesized samples, set 3 (AID 504684)
[10] = HepG2 cell cytotoxicity, cytotoxicity control, set 4 (AID 504910); details: Mycobacterium tuberculosis
[11] = target: Receptor-type tyrosine-protein kinase FLT3 (Homo sapiens, UniProt P36888);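 note: FLT3 was tested as one member of a kinome-wide kinase panel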
Sequence of Receptor-type tyrosine-protein kinase FLT3 (P36888 whole entry): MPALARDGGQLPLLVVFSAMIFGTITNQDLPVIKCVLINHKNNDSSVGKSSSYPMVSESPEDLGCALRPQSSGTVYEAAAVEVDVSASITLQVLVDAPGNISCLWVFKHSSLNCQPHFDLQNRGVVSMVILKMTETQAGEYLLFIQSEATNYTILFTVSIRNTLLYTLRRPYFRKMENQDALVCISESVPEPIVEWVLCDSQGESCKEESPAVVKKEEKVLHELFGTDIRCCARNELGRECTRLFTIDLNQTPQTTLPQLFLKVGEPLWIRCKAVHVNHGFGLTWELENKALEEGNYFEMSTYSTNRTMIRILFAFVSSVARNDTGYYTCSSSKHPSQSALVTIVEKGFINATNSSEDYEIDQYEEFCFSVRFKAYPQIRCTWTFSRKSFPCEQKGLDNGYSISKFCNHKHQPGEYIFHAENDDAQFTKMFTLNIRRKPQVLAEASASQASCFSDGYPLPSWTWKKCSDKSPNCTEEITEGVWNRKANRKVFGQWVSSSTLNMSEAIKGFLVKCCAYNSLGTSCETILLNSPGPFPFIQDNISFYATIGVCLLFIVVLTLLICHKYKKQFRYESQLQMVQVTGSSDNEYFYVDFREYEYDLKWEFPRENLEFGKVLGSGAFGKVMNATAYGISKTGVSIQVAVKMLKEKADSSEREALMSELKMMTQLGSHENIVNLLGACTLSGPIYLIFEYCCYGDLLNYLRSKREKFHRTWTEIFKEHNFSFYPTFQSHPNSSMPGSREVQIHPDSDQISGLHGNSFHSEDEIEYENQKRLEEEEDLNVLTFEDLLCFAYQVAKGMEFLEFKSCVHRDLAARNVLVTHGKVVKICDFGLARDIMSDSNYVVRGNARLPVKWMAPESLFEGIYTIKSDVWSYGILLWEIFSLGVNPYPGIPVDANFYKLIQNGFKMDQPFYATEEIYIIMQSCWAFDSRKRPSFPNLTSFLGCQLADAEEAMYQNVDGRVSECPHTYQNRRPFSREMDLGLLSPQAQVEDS

[12] = target: Tyrosine-protein kinase Blk (Homo sapiens, UniProt P51451);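 note: obtained as one member of a kinome-wide kinase assay panel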
Sequence of Tyrosine-protein kinase Blk (P51451 whole entry): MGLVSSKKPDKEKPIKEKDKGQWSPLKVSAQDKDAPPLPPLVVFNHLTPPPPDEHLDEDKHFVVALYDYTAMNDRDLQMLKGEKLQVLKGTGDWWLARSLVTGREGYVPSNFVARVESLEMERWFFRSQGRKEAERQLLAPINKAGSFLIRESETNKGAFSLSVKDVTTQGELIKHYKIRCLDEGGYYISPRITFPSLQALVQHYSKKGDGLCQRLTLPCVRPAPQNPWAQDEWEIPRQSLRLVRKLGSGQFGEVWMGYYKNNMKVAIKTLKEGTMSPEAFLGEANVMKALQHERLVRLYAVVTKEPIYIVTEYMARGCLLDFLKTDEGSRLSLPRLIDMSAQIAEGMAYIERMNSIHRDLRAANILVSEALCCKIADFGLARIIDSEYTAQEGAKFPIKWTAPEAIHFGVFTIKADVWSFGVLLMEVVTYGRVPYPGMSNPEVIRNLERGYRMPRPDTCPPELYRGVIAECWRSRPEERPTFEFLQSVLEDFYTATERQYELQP

[13] = target: Vascular endothelial growth factor receptor 1 (Homo sapiens, UniProt P17948);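 note: measured within a kinome-wide profiling panel, FLT1 as the panel member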
Sequence of Vascular endothelial growth factor receptor 1 (P17948 whole entry): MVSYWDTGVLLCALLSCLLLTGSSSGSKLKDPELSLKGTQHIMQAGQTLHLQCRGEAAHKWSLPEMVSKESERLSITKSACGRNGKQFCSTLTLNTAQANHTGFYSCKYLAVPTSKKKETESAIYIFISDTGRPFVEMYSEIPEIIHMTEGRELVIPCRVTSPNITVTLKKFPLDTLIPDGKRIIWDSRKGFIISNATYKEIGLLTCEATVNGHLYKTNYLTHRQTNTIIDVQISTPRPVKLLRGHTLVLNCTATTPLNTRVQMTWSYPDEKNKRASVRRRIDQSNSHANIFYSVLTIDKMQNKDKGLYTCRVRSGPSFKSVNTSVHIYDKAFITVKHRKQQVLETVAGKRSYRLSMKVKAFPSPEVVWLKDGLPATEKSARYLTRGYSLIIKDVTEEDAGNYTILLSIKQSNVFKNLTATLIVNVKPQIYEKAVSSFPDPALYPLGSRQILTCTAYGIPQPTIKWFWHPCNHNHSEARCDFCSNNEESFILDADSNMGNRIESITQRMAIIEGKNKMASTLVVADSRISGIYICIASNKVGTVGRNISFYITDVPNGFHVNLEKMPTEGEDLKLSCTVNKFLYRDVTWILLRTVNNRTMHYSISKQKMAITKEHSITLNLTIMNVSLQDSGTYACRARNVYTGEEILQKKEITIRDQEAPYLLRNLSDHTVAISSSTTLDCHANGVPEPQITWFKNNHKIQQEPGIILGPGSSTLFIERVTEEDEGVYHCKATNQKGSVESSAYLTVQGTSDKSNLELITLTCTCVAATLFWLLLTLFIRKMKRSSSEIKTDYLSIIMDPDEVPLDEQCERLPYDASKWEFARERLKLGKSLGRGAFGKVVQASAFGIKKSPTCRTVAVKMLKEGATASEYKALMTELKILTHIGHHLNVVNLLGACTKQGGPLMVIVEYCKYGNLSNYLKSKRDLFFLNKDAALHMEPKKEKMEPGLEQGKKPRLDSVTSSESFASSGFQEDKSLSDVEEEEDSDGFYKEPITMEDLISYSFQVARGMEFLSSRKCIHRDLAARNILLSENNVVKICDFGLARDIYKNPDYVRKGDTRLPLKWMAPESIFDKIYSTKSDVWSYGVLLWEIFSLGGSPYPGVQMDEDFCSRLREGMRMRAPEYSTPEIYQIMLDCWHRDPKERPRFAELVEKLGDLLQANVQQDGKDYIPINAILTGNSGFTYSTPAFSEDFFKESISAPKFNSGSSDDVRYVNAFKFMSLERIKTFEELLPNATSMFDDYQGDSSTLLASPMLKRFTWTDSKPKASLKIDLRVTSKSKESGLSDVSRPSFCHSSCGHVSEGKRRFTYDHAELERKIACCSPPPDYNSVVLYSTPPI

[14] = target: Proto-oncogene tyrosine-protein kinase Src (Homo sapiens, UniProt P12931);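 note: SRC entry within a kinome-wide kinase profiling panel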
[15] = target: Vascular endothelial growth factor receptor 3 (Homo sapiens, UniProt P35916);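 note: value from a kinome-wide profiling panel, with FLT4 as the panel member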
[16] = target: Vascular endothelial growth factor receptor 2 (Homo sapiens, UniProt P35968)
[17] = target: Macrophage colony-stimulating factor 1 receptor (Homo sapiens, UniProt P07333);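 note: value comes from the Navigating the Kinome screening panel, CSF1R member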
[18] = target: Tyrosine-protein kinase ABL1 (Homo sapiens, UniProt P00519)
[19] = target: Tyrosine-protein kinase Lck (Homo sapiens, UniProt P06239);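 note: lck was assayed as one member of a kinase panel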
[20] = target: Mast/stem cell growth factor receptor Kit (Homo sapiens, UniProt P10721);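 note: KIT entry within a kinase panel assay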
[21] = target: Tyrosine-protein kinase Lyn (Homo sapiens, UniProt P07948);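 note: lyn as one member of a kinase panel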
[22] = target: Tyrosine-protein kinase Fyn (Homo sapiens, UniProt P06241)
[23] = target: Activated CDC42 kinase 1 (Homo sapiens, UniProt Q07912); assay: Navigating the Kinome. Panel member name: ACK1
[24] = target: LIM domain kinase 1 (Homo sapiens, UniProt P53667); assay: Navigating the Kinome. Panel member name: LIMK1
Sequence of LIM domain kinase 1 (P53667 whole entry, the tested form may be a part, canonical isoform): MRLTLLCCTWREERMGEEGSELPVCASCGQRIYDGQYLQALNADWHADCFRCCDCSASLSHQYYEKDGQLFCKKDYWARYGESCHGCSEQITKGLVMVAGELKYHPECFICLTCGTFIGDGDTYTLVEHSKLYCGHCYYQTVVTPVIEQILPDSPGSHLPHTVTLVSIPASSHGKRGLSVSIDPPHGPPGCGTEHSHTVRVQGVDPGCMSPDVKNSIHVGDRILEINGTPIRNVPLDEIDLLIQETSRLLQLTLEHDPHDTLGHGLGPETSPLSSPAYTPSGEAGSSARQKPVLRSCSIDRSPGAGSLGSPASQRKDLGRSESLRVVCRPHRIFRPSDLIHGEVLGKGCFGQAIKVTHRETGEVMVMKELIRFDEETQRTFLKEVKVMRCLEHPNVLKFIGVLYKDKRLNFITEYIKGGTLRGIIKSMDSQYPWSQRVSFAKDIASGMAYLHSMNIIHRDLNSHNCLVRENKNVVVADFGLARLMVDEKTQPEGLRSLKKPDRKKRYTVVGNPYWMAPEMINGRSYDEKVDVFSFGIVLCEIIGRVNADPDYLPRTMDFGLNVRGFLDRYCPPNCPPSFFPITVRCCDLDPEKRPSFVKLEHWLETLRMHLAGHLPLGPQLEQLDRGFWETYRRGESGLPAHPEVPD

[25] = target: Casein kinase I isoform alpha (Homo sapiens, UniProt P48729)
Sequence of Casein kinase I isoform alpha (P48729 whole entry, canonical isoform): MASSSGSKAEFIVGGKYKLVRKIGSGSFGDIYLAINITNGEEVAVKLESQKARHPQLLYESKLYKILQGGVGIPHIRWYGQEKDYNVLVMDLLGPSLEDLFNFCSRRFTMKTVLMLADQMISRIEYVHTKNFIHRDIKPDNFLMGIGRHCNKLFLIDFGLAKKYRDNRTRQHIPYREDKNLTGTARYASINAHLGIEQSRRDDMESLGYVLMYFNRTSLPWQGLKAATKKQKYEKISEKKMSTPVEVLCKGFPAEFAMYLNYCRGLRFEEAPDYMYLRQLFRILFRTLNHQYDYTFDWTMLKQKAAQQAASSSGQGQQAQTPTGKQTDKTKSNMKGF

[26] = target: Death-associated protein kinase 3 (Homo sapiens, UniProt O43293);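 note: measured as one member of a kinome-wide profiling panel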
[27] = target: Dual specificity tyrosine-phosphorylation-regulated kinase 1B (Homo sapiens, UniProt Q9Y463); assay: Navigating the Kinome. Panel member name: DYRK1B
Sequence of Dual specificity tyrosine-phosphorylation-regulated kinase 1B (Q9Y463 whole entry): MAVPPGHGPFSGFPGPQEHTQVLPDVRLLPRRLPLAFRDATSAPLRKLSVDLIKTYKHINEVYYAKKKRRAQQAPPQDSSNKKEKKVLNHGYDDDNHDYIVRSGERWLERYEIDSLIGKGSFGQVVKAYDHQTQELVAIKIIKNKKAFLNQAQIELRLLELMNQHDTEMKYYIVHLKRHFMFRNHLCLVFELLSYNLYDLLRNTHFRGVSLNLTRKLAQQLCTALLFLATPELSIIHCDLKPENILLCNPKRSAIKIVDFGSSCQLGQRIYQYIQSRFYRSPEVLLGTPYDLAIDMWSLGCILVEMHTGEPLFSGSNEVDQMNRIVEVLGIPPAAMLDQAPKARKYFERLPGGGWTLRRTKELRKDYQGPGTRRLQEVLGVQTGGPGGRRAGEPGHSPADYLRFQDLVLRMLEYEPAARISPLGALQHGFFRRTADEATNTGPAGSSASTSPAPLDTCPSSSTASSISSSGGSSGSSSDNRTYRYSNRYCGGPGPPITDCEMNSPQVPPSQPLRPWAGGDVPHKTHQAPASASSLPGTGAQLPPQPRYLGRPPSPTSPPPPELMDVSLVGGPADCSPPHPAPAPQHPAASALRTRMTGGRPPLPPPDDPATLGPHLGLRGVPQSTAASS

[28] = target: Dual specificity protein kinase CLK4 (Homo sapiens, UniProt Q9HAZ1)
[29] = target: Rho-associated protein kinase 1 (Homo sapiens, UniProt Q13464);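 note: measured within a broad kinome-wide panel profiling many kinases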
[30] = target: T1, Neuropeptides B/W receptor type 1 (Homo sapiens, UniProt P48145); assay: GPR7 antagonist potency, late-stage follow-up, cell-based, fluorescence, dose response, set 5 (AID 588566)
T1 sequence (P48145 whole entry): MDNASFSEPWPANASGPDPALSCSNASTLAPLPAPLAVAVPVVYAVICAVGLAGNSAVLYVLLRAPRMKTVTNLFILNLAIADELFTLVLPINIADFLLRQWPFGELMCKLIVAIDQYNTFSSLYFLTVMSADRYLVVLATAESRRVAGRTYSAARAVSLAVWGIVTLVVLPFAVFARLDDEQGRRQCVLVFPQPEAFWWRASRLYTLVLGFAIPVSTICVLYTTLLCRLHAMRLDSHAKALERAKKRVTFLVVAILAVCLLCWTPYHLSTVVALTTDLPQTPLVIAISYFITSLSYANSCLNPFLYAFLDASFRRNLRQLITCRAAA

[31] = target: Melanin-concentrating hormone receptor 1 (Homo sapiens, UniProt Q99705); assay: Late-stage fluorescence-based counterscreen for antagonists of the G-protein coupled receptor 7 (GPR7): cell-based dose response assay to identify antagonists of the melanin-concentrating hormone receptor 1 (MCHR1) Set 5.
Sequence of Melanin-concentrating hormone receptor 1 (Q99705 whole entry): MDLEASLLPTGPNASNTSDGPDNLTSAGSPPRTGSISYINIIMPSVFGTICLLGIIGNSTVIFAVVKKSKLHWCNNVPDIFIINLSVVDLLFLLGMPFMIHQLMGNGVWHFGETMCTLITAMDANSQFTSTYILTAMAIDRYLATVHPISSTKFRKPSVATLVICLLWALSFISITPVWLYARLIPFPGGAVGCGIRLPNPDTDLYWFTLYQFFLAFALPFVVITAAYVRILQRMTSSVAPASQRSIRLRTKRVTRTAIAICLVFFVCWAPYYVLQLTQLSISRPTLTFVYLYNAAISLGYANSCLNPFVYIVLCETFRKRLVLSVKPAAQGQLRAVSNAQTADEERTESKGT

In the case of `CCOc1ccc(-c2cc(C)[n+](CCc3ccc(OC)c(OC)c3)c(-c3ccc(OCC)cc3)c2)cc1.[O-][Cl+3]([O-])([O-])[O-]`, the CC50 [1] is reported as 2.28 µM (active), the CC50 [2] is reported as 19.7 µM (active) and the CC50 [3] is reported as > 40 µM (active). The CC50 [4] was 1.3 µM (active), the CC50 [5] was 1.7 µM (active) and the CC50 [6] was 13.1 µM (active). The CC50 [7] was 9.14 µM (active), the CC50 [8] was 21 µM (active) and the CC50 [9] was 18.2 µM (active). For the same compound, the CC50 [10] was 11.9 µM (active).
With `Cc1ccc(F)c(NC(=O)Nc2ccc(-c3cccc4[nH]nc(N)c34)c(F)c2)c1` the Ki [11] was 0.00316 µM (active), the Ki [12] was 0.251 µM (active) and the Ki [13] was 0.001 µM (active). For the same compound, the Ki [14] was 0.501 µM (active), the Ki [15] was 0.00398 µM (active) and the Ki [16] was 0.0126 µM (active). For the same compound, the Ki [17] was 0.00316 µM (active), the Ki [18] was > 0.631 µM (inactive) and the Ki [19] was 0.501 µM (active). The Ki [20] was 0.002 µM (active), the Ki [21] was 0.316 µM (active) and the Ki [22] was 0.158 µM (active).
With `Cn1c(N)nc2sc(C(N)=O)cc21` the Ki [23] was 79.4 µM (active), the Ki [24] was 79.4 µM (active) and the Ki [25] was 12.6 µM (active). The Ki [26] was 10 µM (active), the Ki [27] was 79.4 µM (active) and the Ki [28] was 25.1 µM (active). The Ki [29] was 39.8 µM (active).
For `O=c1c(Oc2ccc(Cl)c(Cl)c2)c(Cl)cnn1Cc1cccc2ccccc12`, the IC50 [30] was > 20 µM (inactive) and the IC50 [31] was > 20 µM (inactive).

— ChEMBL document CHEMBL1201862, “PubChem BioAssay data set” (2004)
